The NIST ThermoML archive (doi:10.1016/j.jct.2004.12.004)

Assay: mn = molality of the nth substance listed, in mol/kg
Conditions: 350 kPa, Liquid, Extra sensitive DSC

OC[C@H]1O[C@@H](O[C@H]2[C@H](O)[C@@H](O)[C@H](O)O[C@@H]2CO)[C@H](O)[C@@H](O)[C@@H]1O [D-cellobiose] + O
apparent molar heat capacity [J/K/mol]
Conditions | m1 = 0.03222 | m1 = 0.05175 | m1 = 0.07986 | m1 = 0.09996 | m1 = 0.1501 | m1 = 0.3084
278.15 K | 562.9 | 563 | 562 | 561.2 | 563 | 566.4
283.15 K | 593 | 592.8 | 591.5 | 590.9 | 592 | 594.5
288.15 K | 619.4 | 618.8 | 617.3 | 616.9 | 617.5 | 619.6
293.15 K | 641.7 | 641.1 | 639.4 | 639.2 | 639.5 | 641.1
298.15 K | 661.3 | 660.7 | 658.6 | 658.8 | 658.7 | 660.1
303.15 K | 678.3 | 677.8 | 675.4 | 676.2 | 675.7 | 676.9
308.15 K | 693.2 | 692.9 | 690.6 | 691.5 | 690.9 | 691.8
313.15 K | 706.5 | 706.5 | 704.1 | 705 | 704.3 | 705.1
318.15 K | 718.8 | 718.9 | 716.6 | 717.5 | 716.7 | 717.3
323.15 K | 730 | 730.1 | 728 | 728.9 | 728.1 | 728.5
328.15 K | 740.4 | 740.7 | 738.6 | 739.5 | 738.7 | 739
333.15 K | 750.3 | 750.6 | 748.6 | 749.5 | 748.7 | 748.9
338.15 K | 759.6 | 759.9 | 758 | 758.9 | 758.1 | 758.3
343.15 K | 768.2 | 768.6 | 766.7 | 767.6 | 766.7 | 766.9
348.15 K | 776.4 | 776.6 | 774.8 | 775.8 | 774.9 | 775
353.15 K | 783.8 | 784.2 | 782.5 | 783.5 | 782.6 | 782.7
358.15 K | 791.1 | 791.5 | 789.8 | 790.8 | 789.9 | 789.9
363.15 K | 797.8 | 798.3 | 796.7 | 797.8 | 796.8 | 796.8
368.15 K | 803.8 | 804.6 | 803 | 804.1 | 803.1 | 803.1
373.15 K | 809.8 | 810.7 | 809 | 810.1 | 809.2 | 809.1
378.15 K | 815 | 816.2 | 814.6 | 815.8 | 814.7 | 814.7
383.15 K | 819.8 | 821.3 | 819.7 | 821.4 | 820 | 819.9
388.15 K | 823 | 825.3 | 824.1 | 827.6 | 824.9 | 824.8
393.15 K | 826.1 | 828.7 | 827.9 | 833 | 829.1 | 829.2
